# Non-standard residues stand in square brackets, D forms with d. Residues, ends and D or L forms follow the SMILES beside them. pY = N[C@@H](Cc1ccc(OP(=O)(O)O)cc1)C(=O)O
# Assays:
# [1] = tested on: α-phosphotyrosine antibody (α-pTyr 100); test: Titration of α-pY antibody on peptide microarrays; assay type: binding; conditions: for Kd: peptide microarray, α-pY antibody 0.06 to 6.66 nM, 3 h at 4 °C, indirect immunofluorescence (Alexa633), bimolecular binding isotherm (Eq. 1), average ± standard deviation, six independent experiments
# Protocol: (§1) Peptides that correspond to known interaction motifs involved in the formation of protein complexes in T cell signalling were purchased from EMC microcollections (Tübingen, Germany). All peptides carried an extra cysteine residue and a free N-terminus for immobilisation on the microarray substrates and a C-terminal amidation (see Electronic Supplementary Material (ESM), Table S1).
# (§2) For generation of microarrays, peptide stock solutions (3 mM) in DMF were diluted 30 times with phosphate buffer (100 mM, pH 8) supplemented with 0.006 % (v/v) Triton X-100. N-Hydroxysuccinimide-preactivated slides served as substrates for immobilisation (Nexterion Slide H, Schott Nexterion/Peq-Lab, Erlangen, Germany) using a Nano-Plotter NP2.0 (GeSIM, Großerkmannshof, Germany), which employs piezo-driven pipetting tips to dispense peptide solutions. Microarray slides comprised 16 subarrays of doublets of each peptide. For each peptide, a volume of 1.2 nl was dispensed at a centre-to-centre spacing of 500 μm. During printing, temperature was maintained at 15 °C and air humidity at 65 %.
# (§3) Sixteen incubation chambers with identical subarrays consisting of peptides derived from binding motifs of signalling proteins (see ESM Table S1) were generated by attaching a clip-on frame to the microarray substrate (ProPlate Multiarray System, Grace Biolabs, Molecular Probes, Eugene, OR, USA). The typical incubation volume for the subarrays was 50 μl. Microarrays were either incubated with an α-pY antibody (α-pTyr 100, 9411, Cell Signalling, Frankfurt am Main, Germany) at the indicated concentrations or co-incubated with cell lysate at the indicated concentrations for 3 h at 4 °C. Additionally, in another set of experiments, recombinant GRB2-SH2 was incubated on microarrays alone or co-incubated with cell lysate employing an α-penta HIS antibody (34600, Qiagen, Hilden, Germany) for the detection of His-tagged GRB2-SH2.
# (§4) After incubation, microarrays were washed three times with washing buffer (PBS, 0.05 % (w/v) BSA, 0.05 % (w/v) Tween-20). For the detection of signals, microarrays were incubated with a secondary α-mouse antibody conjugated with Alexa633 (A-21050, Invitrogen) at a concentration of 1 μg/ml for 15 min at RT followed by a last washing step with washing buffer. Microarrays were dried with nitrogen and scanned using a ProScanArray (PerkinElmer Life Sciences, Waltham, Massachusetts), and the data were analysed using ArrayPro Analyzer software (Media Cybernetics, Silver Spring, USA) as described before. Final data represented the mean signal intensities corrected for the median of a ring-shaped local background surrounding the respective peptide spot. Titrations with α-pY antibody and GRB2-SH2 were performed to calculate dissociation constants (see below).
# The resulting titration curves were fitted with Origin (OriginLab Corporation, v.6.1057, Northampton, USA) using a binding isotherm for a bimolecular interaction (Eq. 1):1 Fabs=Fmaxprot/Kd+prot Fabs represents the intensity of a microarray spot after background correction and [prot] the concentration of the titrated binder. Kd and Fmax were obtained from the fits.
# To render this approach quantitative, first the affinities of the α-pY antibody towards the phosphotyrosine motifs of the microarrays were determined. […] The titration curves were fitted with a binding isotherm for a bimolecular interaction (Eq. 1, Fig. 2a, Table 1). In general, a coefficient of determination (R^2) of 0.8 was used as a cutoff in order to score a peptide as a binder. […] Regarding the poly-proline motif (PP) containing peptides present on the microarray, only on the peptide GAB2-509 in five experiments, a titration curve with an R^2 > 0.8 could be generated.
# [2] = tested on: proteins in Jurkat cell lysate (total cellular proteome); test: Competition of α-pY antibody binding with Jurkat cell lysate on peptide microarrays; conditions: for Kd: from EC50 and Kd α-pY by Cheng-Prusoff equation (Eq. 4), ± standard deviation
# Protocol: as §1, §2
# (§5) Jurkat T cell leukaemia cells were maintained in RPMI 1640 medium (PAN-Biotech, Aisenbach, Germany) supplemented with 10 % foetal calf serum at 37 °C in 5 % CO2. For the preparation of lysates, cells were resuspended in lysis buffer (1 % Triton X-100, 50 mM n-octyl-D-glucopyranoside (Fluka, Taufkirchen, Germany), 20 mM Tris, 1 mM EDTA, 150 mM NaCl, 1 mM Na3VO4, pH 7.5, and complete protease inhibitor cocktail (Roche Applied Science, Mannheim, Germany)). Incubation on ice for 1 h was followed by centrifugation at 20,000×g at 4 °C for 15 min to remove cell debris. Transmembrane proteins were extracted from lipid rafts by using N-octyl-D-glucopyranoside. Protein concentrations were measured by Bradford Assay.
# as §3, §4
# For determination of EC50 values for competition with cell lysate, curves were fitted according to2 y=y0+Ae^−x/t with y0 as the signal intensity of the α-pY antibody or the recombinant GRB2-SH2 domain without cell lysate, A the amplitude, x the protein concentration in lysate, and t the decay constant. […]
# [3] = tested on: proteins in Jurkat cell lysate (total cellular proteome); test: Competition of recombinant GRB2-SH2 binding with cell lysate on peptide microarrays
# Protocol: as §5
# The PCR product of the SH2 domain of GRB2 (GRB2-SH2) was cloned into the pET160/GW/D-TOPO vector (Invitrogen, Breda, The Netherlands), which contains a region encoding for a His-tag. The plasmid was used to perform a transformation into One Shot TOP10 competent cells (Invitrogen). […] The concentration of expressed protein was determined by photometric measurements at OD280. The concentration of GRB2-SH2 was determined in Western blots by quantitatively analysing obtained bands of purified GRB2-SH2 in an Odyssey Infrared Imaging System (Li-Cor Biosciences, Bad Homburg, Germany) in comparison with a bovine serum albumin (BSA) standard. […]
# [4] = tested on: SH2 domain of GRB2 (GRB2-SH2); conditions: cited from earlier work
# Description: In contrast, the data points for LATpY191 and SHP1pY564, and SigpY437, ZAPpY319 and CDζpY72/83 were above or below the linear correlation defined by the first four peptides. […] SigpY437, in contrast, is a poor binder for which already low concent ...
SMILES,affinity of the α-pY antibody (in words) ([1]; compared with the other pY peptides),Kd [1] [nM],Kd [2] [µM],"loss of signal of the α-pY antibody on competition with cell lysate ([2]; result in words, Jurkat lysate up to 180 μM total protein)",competition of GRB2-SH2 by cell lysate (in words) [3],"affinity for the SH2 domain of GRB2 (in words) ([4]; ref [25], [26])","binding to GRB2 / GRB2-SH2 (in words) ([4]; Kd values of GRB2-SH2 described in recently published manuscript, ref [14])"
CC(C)C[C@H](NC(=O)[C@H](CCC(=O)O)NC(=O)[C@H](CCC(N)=O)NC(=O)[C@H](CO)NC(=O)[C@@H](NC(=O)[C@H](CC(N)=O)NC(=O)[C@@H](NC(=O)[C@H](Cc1ccc(OP(=O)(O)O)cc1)NC(=O)[C@H](CCC(=O)O)NC(=O)[C@H](CCCNC(=N)N)NC(=O)[C@H](CO)NC(=O)CNC(=O)[C@H](CC(=O)O)NC(=O)[C@H](CC(C)C)NC(=O)[C@H](CO)NC(=O)[C@H](C)NC(=O)[C@H](CCC(=O)O)NC(=O)[C@@H](N)CS)C(C)C)C(C)C)C(N)=O [LATpY191] (H-CEASLDGSRE[pY]VNVSQEL-NH2),high affinity,0.35 ± 0.28,16 ± 15,total loss of signal,rather small competition,strong affinity,
CC[C@H](C)[C@H](NC(=O)[C@H](CCC(=O)O)NC(=O)[C@H](CCCNC(=N)N)NC(=O)[C@H](CCC(=O)O)NC(=O)[C@H](CCC(=O)O)NC(=O)CNC(=O)[C@@H](N)CS)C(=O)N[C@@H](CCC(N)=O)C(=O)N[C@@H](Cc1ccc(OP(=O)(O)O)cc1)C(=O)N[C@@H](C)C(=O)N1CCC[C@H]1C(=O)N[C@@H](CC(C)C)C(=O)N[C@@H](CO)C(=O)N[C@@H](Cc1ccccc1)C(=O)N[C@@H](Cc1c[nH]cn1)C(=O)N[C@@H](CCCCN)C(=O)NCC(N)=O [SigpY437] (H-CGEEREIQ[pY]APLSFHKG-NH2),,0.66 ± 0.46,22 ± 20,,already low concentrations of lysate show full competition,,poor binder

# From article PMC4830892, “A microarray-based approach to evaluate the functional significance of protein-binding motifs” (Analytical and Bioanalytical Chemistry, 2016)
